Measured values reported in US20100151015A1 (priority 2008, published 2010).

Key:
[1] = cited from earlier work
[2] = Solubility of Melperone HCl in various media; type: physicochemical
[3] = human, in vivo; cited from earlier work
[4] = test system: psychosis in patients with PD; conditions: cited from earlier work
[5] = cited from earlier work; remark: listed apart in the source
[6] = test system: psychosis associated with PD; conditions: initial open-label studies; cited from earlier work

CC1CCN(CCCC(=O)c2ccc(F)cc2)CC1.Cl [Melperone HCl, 1-(4-fluorophenyl)-4-(4-methyl-1-piperidinyl)-1-butanone hydrochloride]
pKa [1]: 9.1 | solubility ([2]; ethanol, organic solvent or mixture): 88.5 mg/mL | solubility ([2]; phosphate buffer, aqueous buffer, pH 4.5 (phosphate)): 800 mg/mL | solubility ([2]; phosphate buffer, aqueous buffer, pH 6.8 (phosphate)): 800 mg/mL | solubility ([2]; phosphate buffer, aqueous buffer, pH 7.0 (phosphate)): ≥ 100 mg/mL | solubility ([2]; phosphate buffer, aqueous buffer, pH 7.1 (phosphate)): 51.3 mg/mL | solubility ([2]; phosphate buffer, aqueous buffer, pH 7.5 (phosphate)): 25.6 mg/mL | solubility ([2]; purified water, water): 800 mg/mL | solubility ([2]; simulated gastric fluid, pH 1.2 (0.1N HCl)): 700 mg/mL

CC1CCN(CCCC(=O)c2ccc(F)cc2)CC1 [melperone]
incidence of extrapyramidal side effect (EPS) or tardive dyskinesia [3]: low incidence | Solubility in aqueous solutions ([2]; higher pH values (above pH=7.5)): poorly soluble | Solubility in aqueous solutions ([2]; pH range from about 1.2 up to about pH 6.8): freely soluble | time over which efficacy was maintained ([4]; mean daily dose of 37.5 mg): 2 years | efficacy in the treatment of psychosis in patients with PD ([4]; proof-of-concept study): has shown efficacy | onset of efficacy ([4]; proof-of-concept study): rapid (within a week) | mean Tmax ([5]; oral tablet administration): 1.5 to 3.0 h | absolute oral bioavailability ([5]; oral, extensive first-pass metabolism): 50-70%

OCCOCCN1CCN(C2=Nc3ccccc3Sc3ccccc32)CC1 [quetiapine]
efficacy in psychosis associated with PD [6]: has shown efficacy | patients with worsening of motor symptoms of PD [6]: up to 30%
